# Measurements: patent US20080280879A1, “SUBSTITUTED HETEROCYCLIC DERIVATIVES AND THEIR PHARMACEUTICAL USE AND COMPOSITIONS” (priority 2007, published 2008)
# How the values were obtained:
# Assay type in all cases: cell-based, Staphylococcus aureus
# [1] = system: Staph aureus 1146; test: MIC, microtiter broth dilution (CLSI M7-A7), Assay 1, Table 12 column B, no serum; details: for MIC: Staphylococcus aureus, 1146, Staph aureus 1146, Assay 1, no serum; for MIC, column B: Staph aureus 1146, Assay 1, no serum
# Description: (§1) The assays described herein include a panel of bacterial isolates of Staphylococcus aureus. Assay 1 comprises the strains noted in Columns A through E, and Assay 2 comprises the strains noted in Columns F through H. The assays are performed in microtiter trays according to Methods for Dilution Antimicrobial Susceptibility Tests for Bacteria that Grow Aerobically; Approved Standard-7th edition (M7-A7) and interpreted according to the Performance Standards for Antimicrobial Susceptibility Testing; 16th Informational Supplement (M100-S16) published by Clinical Laboratory Standards Institute (CLSI). The antibacterial activity is presented in the form of a minimum inhibitory concentration (MIC) value in μg/ml format. The MIC value represents the lowest concentration of drug measured which prevented macroscopically visible growth under the conditions and specific doses tested. The compounds were initially dissolved in DMSO as 30 mM stocks and diluted accordingly to adjust to a concentration of 10 mg/ml or the compounds were dissolved in DMSO at a concentration of 10 mg/ml. For assessment of activity in the presence of human serum, S. aureus 1146 and S. aureus 1031 were inoculated into Mueller-Hinton Broth with 50% pooled inactivated human serum. In some cases, compounds were tested more than once in a particular assay. Where noted, the MIC value shown in Table 12 represents the geometric mean of the data from multiple runs.
# (§2) It should be understood that the data in columns A-H represents MIC data in μg/ml and the notation “<=” means ‘less than or equal to’.
# [2] = system: Staph aureus 2811; test: MIC, microtiter broth dilution (CLSI M7-A7), Assay 1, Table 12 column D, no serum; details: for MIC: Staphylococcus aureus, 2811, Staph aureus 2811, Assay 1, no serum; for MIC, column D: Staph aureus 2811, Assay 1, no serum
# Description: as §1, §2
# [3] = system: Staph aureus 1146; test: MIC in Mueller-Hinton Broth with 50% pooled inactivated human serum, Assay 1, Table 12; details: for MIC: Staphylococcus aureus, 1146, Staph aureus 1146, Assay 1, 50% human serum, read-out: MIC, column C; for MIC, column C: Staph aureus 1146, Assay 1, 50% human serum
# Description: as §1, §2
# [4] = system: Staph aureus 2812; test: MIC, microtiter broth dilution (CLSI M7-A7), Assay 1, Table 12 column E, no serum; details: for MIC: Staphylococcus aureus, 2812, Staph aureus 2812, Assay 1, no serum; for MIC, column E: Staph aureus 2812, Assay 1, no serum
# Description: as §1, §2
# [5] = system: Staph aureus 1095 MRSA; test: MIC, microtiter broth dilution (CLSI M7-A7), Assay 1, Table 12 column A, no serum; details: Assay 1, no serum; for MIC: Staphylococcus aureus, MRSA
# Description: as §1, §2
SMILES,MIC [1],MIC [2],MIC [3],MIC [4],MIC [5],"MIC, column C [3]","MIC, column B [1]","MIC, column D [2]","MIC, column E [4]","MIC, column A [5]"
"COc1ccc2nccc([C@@H](O)CC[C@@H]3CCN(C4CC(c5ccc(Br)cc5F)C4)C[C@@H]3C(=O)O)c2c1 (stereo partly drawn) [Example 196, (3R,4R)-1-[3-(4-bromo-2-fluorophenyl)cyclobutyl]-4-[(3S)-3-hydroxy-3-(6-methoxyquinolin-4-yl)propyl] piperidine-3-carboxylic acid]",1 µg/mL,1 µg/mL,64 µg/mL,2 µg/mL,8 µg/mL,–,–,–,–,–
"COc1ccc2ncc(F)c(C(O)CC[C@@H]3CCN(C4CC(c5cc(F)ccc5F)C4)C[C@@H]3C(=O)O)c2c1 (single isomer, unassigned) [Example 59]",≤ 0.0625 µg/mL,≤ 0.0625 µg/mL,–,≤ 0.0625 µg/mL,≤ 0.0625 µg/mL,<=.0625 μg/ml,–,–,–,–
"COc1ccc2ncc(Cl)c(CCCC3(C(=O)O)CCN(C4CN(c5ccccn5)C4)CC3)c2c1 [Example 126, 4-(3-(3-chloro-6-methoxyquinolin-4-yl)propyl)-1-(1-(pyridin-2-yl)azetidin-3-yl)piperidine-4-carboxylic add]",–,–,–,–,–,>64 µg/mL,8 µg/mL,2 µg/mL,4 µg/mL,>64 µg/mL
"COc1ccc2ncc(F)c(C(O)CC[C@@H]3CCN(C4CC(c5c(F)cccc5F)C4)C[C@@H]3C(=O)O)c2c1 (stereo partly drawn) [Example 17, (3R,4R)-1-[3-(2,6-difluorophenyl)cyclobutyl]-4-[3-(3-fluoro-6-methoxyquinolin-4-yl)-3-hydroxypropyl]piperidine-3-carboxylic acid]",≤ 0.0625 µg/mL,≤ 0.0625 µg/mL,0.5 µg/mL,≤ 0.0625 µg/mL,≤ 0.0625 µg/mL,–,–,–,–,–
"COc1ccc2ncc(Cl)c(C(O)CCC3(C(=O)O)CCN(C4CC(c5cc(F)ccc5F)C4)C3)c2c1 (centres unmarked) [Example 184, 3-[3-(3-chloro-6-methoxyquinolin-4-yl)-3-hydroxypropyl]-1-[3-(2,5-difluorophenyl)cyclobutyl] pyrrolidine-3-carboxylic acid]",< 0.0625 µg/mL,< 0.0625 µg/mL,8 µg/mL,< 0.0625 µg/mL,0.25 µg/mL,–,–,–,–,–
"COc1ccc2nccc([C@@H](O)CC[C@@H]3CCN(C4CC(c5c(F)cccc5F)C4C)C[C@@H]3C(=O)O)c2c1 (stereo partly drawn) [Example 67, (3R,4R)-1-[(2,3)-3-(2,6-difluorophenyl)-2-methylcyclobutyl]-4-[(3S)-3-hydroxy-3-(6-methoxyquinolin-4-yl)propyl]piperidine-3-carboxylic acid]",–,–,–,–,–,2 µg/mL,<=.0625 μg/ml,<=.0625 μg/ml,0.125 µg/mL,0.125 µg/mL
"COc1ccc2nccc([C@@H](O)CC[C@@H]3CCN(C4CC(c5ccc(Cl)cc5F)C4)C[C@@H]3C(=O)O)c2c1 (stereo partly drawn) [Example 65, (3R,4R)-1-[3-(4-chloro-2-fluorophenyl)cyclobutyl]-4-[(3S)-3-hydroxy-3-(6-methoxyquinolin-4-yl)propyl]piperidine-3-carboxylic acid]",0.25 µg/mL,0.25 µg/mL,16 µg/mL,1 µg/mL,1 µg/mL,–,–,–,–,–
"COc1ccc2nccc(C(O)CC[C@@H]3CCN(C4CN(Cc5ccccn5)C4)C[C@@H]3C(=O)O)c2c1 (stereo partly drawn) [Example 127, (3R,4R)-4-(3-hydroxy-3-(6-methoxyquinolin-4-yl)propyl)-1-(1-(pyridine-2-ylmethyl)azetidin-3-yl)piperdine-3-carboxylic acid]",–,–,–,–,–,>64 µg/mL,>64 µg/mL,>64 µg/mL,>64 µg/mL,>64 µg/mL
"COc1ccc2ncc(F)c(C(O)CC[C@@H]3CCN(C4CC(c5ccccc5)C4)C[C@@H]3C(=O)O)c2c1 (single isomer, unassigned) [Example 15]",–,0.0625 µg/mL,–,–,0.0884 µg/mL,0.25 µg/mL,0.0156 µg/mL,–,0.03125 µg/mL,–
"COc1ccc2nccc([C@@H](O)CC[C@@H]3CCN(C4CC(c5cccc(C(F)(F)F)c5F)C4)C[C@@H]3C(=O)O)c2c1 (stereo partly drawn) [Example 193, (3R,4R)-1-{3-[2-fluoro-3-(trifluoromethyl)phenyl]cyclobutyl}-4-[(3S)-3-hydroxy-3-(6-methoxyquinolin-4-yl)propyl]piperidine-3-carboxylic acid]",0.125 µg/mL,0.125 µg/mL,64 µg/mL,0.125 µg/mL,0.5 µg/mL,–,–,–,–,–
